# Several values for one entry are separate records, joined by “and”; a condition that tells them apart may be missing. Equal values may be shown once.
# Experiments:
# human lymphocytes = details: cited from earlier work
# C. elegans = details: NIC 100 μM; cited from earlier work
# [1] = system: Drosophila melanogaster standard cross (ST), marker-heterozygous flies (mwh +/+ flr3); assay: Drosophila wing spot test; assay type: in vivo
# [2] = system: Drosophila melanogaster high bioactivation cross (HB), marker-heterozygous flies (mwh +/+ flr3); assay: Drosophila wing spot test; assay type: in vivo
# [3] = system: A549 human adenocarcinoma cells; details: cited from earlier work
# [4] = NIC 0.456 mM + RES 0.0004 mM vs NIC 0.456 mM
# [5] = NIC 0.456 mM + RES 0.0004 mM vs RES 0.0004 mM
# [6] = NIC 0.456 mM + RES 0.011 mM vs RES 0.011 mM
# [7] = NIC 11.4 mM + RES 0.0004 mM vs RES 0.0004 mM
# [8] = NIC […] + RES 0.0004 mM vs NIC […]
# [9] = NIC […] + RES 0.0004 mM vs RES 0.0004 mM
# [10] = ST cross, URE 20 mM positive control, vs water
# [11] = HB cross, URE 20 mM positive control, vs water
compound,measurement,setting,value
"CN1CCC[C@H]1c1cccnc1 [NIC, nicotine]",Concentrations at which genotoxic in in vitro assays,human lymphocytes,> 500 nM
same,"Genotoxicity, comet assay (in words)",C. elegans,genotoxic
same,Mean mwh clone size class,[1]; NIC 0.050 mM + RES 0.011 mM,1.34
same,Number of surviving flies,"[1]; ST cross, NIC 11.4 mM",decreased
same,Genotoxicity (in words),"[1]; ST cross, NIC […] and 11.4 mM, increased small and total spots",genotoxic
same,Lethality,"[2]; HB cross, NIC 11.4 mM",lethal
same,Clone formation observed,[2]; NIC 0.456 mM,0.95 per 105 per cell Cells division
same,Large single spots (>2 cells) per fly (number of spots),[2]; NIC 0.456 mM,0.07 (007)
same,Mean mwh clone size class,[2]; NIC 0.456 mM,1.64
same,Small single spots (1-2 cells) per fly (number of spots),[2]; NIC 0.456 mM,0.38 (038)
same,Total spots per fly (number of spots),[2]; NIC 0.456 mM,0.48(048)
same,Twin spots per fly (number of spots),[2]; NIC 0.456 mM,0.03 (003)
same,mwh clones,[2]; NIC 0.456 mM,47
same,Clone formation observed,[2]; NIC 0.456 mM + RES 0.0004 mM,0.95 per 105 per cell Cells division and 0.90 per 105 per cell Cells division
same,Large single spots (>2 cells) per fly (number of spots),[2]; NIC 0.456 mM + RES 0.0004 mM,0.11 (007)
same,Mean mwh clone size class,[2]; NIC 0.456 mM + RES 0.0004 mM,2.21
same,Small single spots (1-2 cells) per fly (number of spots),[2]; NIC 0.456 mM + RES 0.0004 mM,0.36 (023)
same,Total spots per fly (number of spots),[2]; NIC 0.456 mM + RES 0.0004 mM,0.47 (030)
same,Twin spots per fly (number of spots),[2]; NIC 0.456 mM + RES 0.0004 mM,0.00 (000)
same,mwh clones,[2]; NIC 0.456 mM + RES 0.0004 mM,29
same,Clone formation control connected,[2]; [4],-0.05 per 105 per cell Cells division
same,Large single spots statistical diagnosis,[2]; [4],-
same,Small single spots statistical diagnosis,[2]; [4],-
same,Total spots statistical diagnosis,[2]; [4],-
same,Twin spots statistical diagnosis,[2]; [4],-
same,Clone formation control connected,[2]; [5],-0.25 per 105 per cell Cells division
same,Large single spots statistical diagnosis,[2]; [5],-
same,Small single spots statistical diagnosis,[2]; [5],-
same,Total spots statistical diagnosis,[2]; [5],-
same,Twin spots statistical diagnosis,[2]; [5],-
same,Large single spots (>2 cells) per fly (number of spots),[2]; NIC 0.456 mM + RES 0.011 mM,0.10 (006)
same,Small single spots (1-2 cells) per fly (number of spots),[2]; NIC 0.456 mM + RES 0.011 mM,0.37 (022)
same,Clone formation control connected,[2]; [6],0.20 per 105 per cell Cells division
same,Small single spots statistical diagnosis,[2]; [6],-
same,Clone formation observed,[2]; NIC 11.4 mM + RES 0.0004 mM,0.80 per 105 per cell Cells division
same,Large single spots (>2 cells) per fly (number of spots),[2]; NIC 11.4 mM + RES 0.0004 mM,0.00 (000)
same,Mean mwh clone size class,[2]; NIC 11.4 mM + RES 0.0004 mM,1.25
same,Small single spots (1-2 cells) per fly (number of spots),[2]; NIC 11.4 mM + RES 0.0004 mM,0.40 (004)
same,Total spots per fly (number of spots),[2]; NIC 11.4 mM + RES 0.0004 mM,0.40 (004)
same,Twin spots per fly (number of spots),[2]; NIC 11.4 mM + RES 0.0004 mM,0.00 (000)
same,mwh clones,[2]; NIC 11.4 mM + RES 0.0004 mM,04
same,Clone formation control connected,[2]; [7],-0.40 per 105 per cell Cells division
same,Large single spots statistical diagnosis,[2]; [7],-
same,Small single spots statistical diagnosis,[2]; [7],-
same,Total spots statistical diagnosis,[2]; [7],-
same,Twin spots statistical diagnosis,[2]; [7],-
same,Large single spots statistical diagnosis,[2]; [8],-
same,Twin spots statistical diagnosis,[2]; [8],-
same,Large single spots statistical diagnosis,[2]; [9],-
same,Small single spots statistical diagnosis,[2]; [9],-
same,Total spots statistical diagnosis,[2]; [9],-
same,Twin spots statistical diagnosis,[2]; [9],-
"Oc1ccc(/C=C/c2cc(O)cc(O)c2)cc1 [RES, Resveratrol]",Clone formation observed,[1]; RES 0.0004 mM,1.15 per 105 per cell Cells division
same,Large single spots (>2 cells) per fly (number of spots),[1]; RES 0.0004 mM,0.07 (004)
same,Mean mwh clone size class,[1]; RES 0.0004 mM,1.64
same,Small single spots (1-2 cells) per fly (number of spots),[1]; RES 0.0004 mM,0.53 (031)
same,Total spots per fly (number of spots),[1]; RES 0.0004 mM,0.60 (035)
same,Twin spots per fly (number of spots),[1]; RES 0.0004 mM,0.00 (0)
same,mwh clones,[1]; RES 0.0004 mM,33
same,Clone formation observed,[1]; RES 0.011 mM,1.15 per 105 per cell Cells division and 1.35 per 105 per cell Cells division
same,Large single spots (>2 cells) per fly (number of spots),[1]; RES 0.011 mM,0.03 (002) and 0.05 (005)
same,Mean mwh clone size class,[1]; RES 0.011 mM,1.84 and 1.58
same,Small single spots (1-2 cells) per fly (number of spots),[1]; RES 0.011 mM,0.47 (027) and 0.58 (057)
same,Total spots per fly (number of spots),[1]; RES 0.011 mM,0.57 (033) and 0.67 (066)
same,Twin spots per fly (number of spots),[1]; RES 0.011 mM,0.07 (004) and 0.04 (004)
same,Effect on cell survival (in words),[3]; RES 0.02 mM,inhibited cell survival
same,Effect on cell proliferation and viability (in words),[3]; RES 0.001 and 0.005 mM,promoted cell proliferation and viability
same,Clone formation observed,[2]; RES 0.0004 mM,1.20 per 105 per cell Cells division
same,Large single spots (>2 cells) per fly (number of spots),[2]; RES 0.0004 mM,0.06 (005)
same,Mean mwh clone size class,[2]; RES 0.0004 mM,1.84
same,Small single spots (1-2 cells) per fly (number of spots),[2]; RES 0.0004 mM,0.52 (045)
same,Total spots per fly (number of spots),[2]; RES 0.0004 mM,0.59 (051)
same,Twin spots per fly (number of spots),[2]; RES 0.0004 mM,0.01 (001)
same,mwh clones,[2]; RES 0.0004 mM,51
same,Mean mwh clone size class,[2]; RES 0.011 mM,1.43 and 1.56
same,Twin spots per fly (number of spots),[2]; RES 0.011 mM,0.02 (001)
"CCOC(N)=O [URE, ethyl carbamate]","Clone formation per 105 cells per cell division, observed","[1]; ST cross, URE 20 mM",2.80
same,Mean mvh clone size class,"[1]; ST cross, URE 20 mM",1.45
same,mwh clones,"[1]; ST cross, URE 20 mM",38
same,"Small single spots (1-2 cells), Spots per Fly (Number of Spots)",[1]; [10],1.21 (34) Spots per Fly
same,"Small single spots (1-2 cells), Statistical Diagnosis",[1]; [10],+
same,Total spots statistical diagnosis,[1]; [10],+
same,"Total spots, Spots per Fly (Number of Spots)",[1]; [10],1.36 (38) Spots per Fly
same,Twin spots statistical diagnosis,[1]; [10],-
same,"Twin spots, Spots per Fly (Number of Spots)",[1]; [10],0.04 (1) Spots per Fly
same,"large single spots (>2 cells), Spots per Fly (Number of Spots)",[1]; [10],0.11 (03) Spots per Fly
same,"large single spots (>2 cells), Statistical Diagnosis",[1]; [10],-
same,"Clone formation per 105 cells per cell division, control connected","[1]; ST cross, URE 20 mM, control water",1.65
same,"Clone formation per 105 cells per cell division, observed","[2]; HB cross, URE 20 mM",6.35
same,Mean mvh clone size class,"[2]; HB cross, URE 20 mM",1.82
same,mwh clones,"[2]; HB cross, URE 20 mM",71
same,"Small single spots (1-2 cells), Spots per Fly (Number of Spots)",[2]; [11],2.52 (58) Spots per Fly
same,"Small single spots (1-2 cells), Statistical Diagnosis",[2]; [11],+
same,Total spots statistical diagnosis,[2]; [11],+
same,"Total spots, Spots per Fly (Number of Spots)",[2]; [11],3.09 (71) Spots per Fly
same,Twin spots statistical diagnosis,[2]; [11],+
same,"Twin spots, Spots per Fly (Number of Spots)",[2]; [11],0.17 (4) Spots per Fly
same,"large single spots (>2 cells), Spots per Fly (Number of Spots)",[2]; [11],0.39 (09) Spots per Fly
same,"large single spots (>2 cells), Statistical Diagnosis",[2]; [11],+
same,"Clone formation per 105 cells per cell division, control connected","[2]; HB cross, URE 20 mM, control water",4.85

# — publication PMC9234589 (Heliyon, 2022)
